Measurements from ChEMBL document CHEMBL1201862, “PubChem BioAssay data set” (2004).
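Growth conditions: 96-well plates. Treatment: test compound, 48 hours, 5 concentrations. Analysis: linear interpolation between bracketing concentrations; unreached endpoints set to highest concentration. GI50: concentration for 50% inhibition of growth.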 Activity calls are given as the source filed them. Cut-off read from the data, not from the text of the source: active = GI50 up to about 1.1 µM and inactive = higher.

Tests used:
Assay in all cases: inhibition of tumour cell growth, NCI panel, 48 h
UACC-62 = test system: UACC-62
M14 = test system: M14
Malme-3M = test system: Malme-3M
COLO 205 = test system: COLO 205
Hs-578T = test system: Hs-578T
TK-10 = test system: TK-10
U-251 = test system: U-251
OVCAR-5 = test system: OVCAR-5
UACC-257 = test system: UACC-257
LOX IMVI = test system: LOX IMVI
SK-MEL-28 = test system: SK-MEL-28
IGROV-1 = test system: IGROV-1
UO-31 = test system: UO-31
OVCAR-8 = test system: OVCAR-8
BT-549 = test system: BT-549
NCI-H460 = test system: NCI-H460
SF-295 = test system: SF-295
OVCAR-3 = test system: OVCAR-3
HCC 2998 = test system: HCC 2998
NCI-H226 = test system: NCI-H226
SNB-19 = test system: SNB-19
OVCAR-4 = test system: OVCAR-4
HOP-62 = test system: HOP-62
KM12 = test system: KM12
786-0 = test system: 786-0
MOLT-4 = test system: MOLT-4
MCF7 = test system: MCF7
HOP-92 = test system: HOP-92
SK-MEL-5 = test system: SK-MEL-5
A549 = test system: A549
SF-539 = test system: SF-539
NCI/ADR-RES = test system: NCI/ADR-RES
MDA-MB-435 = test system: MDA-MB-435
SF-268 = test system: SF-268
HT-29 = test system: HT-29
MDA-N = test system: MDA-N
MDA-MB-231 = test system: MDA-MB-231
NCI-H23 = test system: NCI-H23
SR = test system: SR
SN12C = test system: SN12C
SW-620 = test system: SW-620
K562 = test system: K562
SNB-75 = test system: SNB-75
T47D = test system: T47D
EKVX = test system: EKVX
NCI-H522 = test system: NCI-H522
ACHN = test system: ACHN
SK-OV-3 = test system: SK-OV-3
CCRF-CEM = test system: CCRF-CEM
HCT-116 = test system: HCT-116
PC-3 = test system: PC-3
CAKI-1 = test system: CAKI-1
DU-145 = test system: DU-145
RPMI-8226 = test system: RPMI-8226
HL-60 = test system: HL-60
SK-MEL-2 = test system: SK-MEL-2
A498 = test system: A498
RXF 393 = test system: RXF 393
HCT-15 = test system: HCT-15

## C(/C=N/N=C1NCCCCN1)=N\N=C1NCCCCN1
UACC-62
  GI50: > 100 µM (inactive)
M14
  GI50: > 100 µM (inactive)
Malme-3M
  GI50: > 100 µM (inactive)
COLO 205
  GI50: > 100 µM (inactive)
Hs-578T
  GI50: > 100 µM (inactive)
TK-10
  GI50: > 100 µM (inactive)
U-251
  GI50: > 100 µM (inactive)
OVCAR-5
  GI50: > 100 µM (inactive)
UACC-257
  GI50: > 100 µM (inactive)
LOX IMVI
  GI50: > 100 µM (inactive)
SK-MEL-28
  GI50: > 100 µM (inactive)
IGROV-1
  GI50: > 100 µM (inactive)
UO-31
  GI50: > 100 µM (inactive)
OVCAR-8
  GI50: > 100 µM (inactive)
BT-549
  GI50: > 100 µM (inactive)
NCI-H460
  GI50: > 100 µM (inactive)
SF-295
  GI50: > 100 µM (inactive)
OVCAR-3
  GI50: > 100 µM (inactive)
HCC 2998
  GI50: > 100 µM (inactive)
NCI-H226
  GI50: > 100 µM (inactive)
SNB-19
  GI50: > 100 µM (inactive)
OVCAR-4
  GI50: > 100 µM (inactive)
HOP-62
  GI50: > 100 µM (inactive)
KM12
  GI50: > 100 µM (inactive)
786-0
  GI50: > 100 µM (inactive)
MOLT-4
  GI50: > 100 µM (inactive)
MCF7
  GI50: > 100 µM (inactive)
HOP-92
  GI50: > 100 µM (inactive)
SK-MEL-5
  GI50: > 100 µM (inactive)
A549
  GI50: > 100 µM (inactive)
SF-539
  GI50: > 100 µM (inactive)
NCI/ADR-RES
  GI50: > 100 µM (inactive)
MDA-MB-435
  GI50: > 100 µM (inactive)
SF-268
  GI50: > 100 µM (inactive)
HT-29
  GI50: > 100 µM (inactive)
MDA-N
  GI50: > 100 µM (inactive)
MDA-MB-231
  GI50: > 100 µM (inactive)
NCI-H23
  GI50: > 100 µM (inactive)
SR
  GI50: > 100 µM (inactive)
SN12C
  GI50: > 100 µM (inactive)
SW-620
  GI50: > 100 µM (inactive)
K562
  GI50: > 100 µM (inactive)
SNB-75
  GI50: > 100 µM (inactive)
T47D
  GI50: > 100 µM (inactive)
EKVX
  GI50: > 100 µM (inactive)
NCI-H522
  GI50: > 100 µM (inactive)
ACHN
  GI50: > 100 µM (inactive)
SK-OV-3
  GI50: > 100 µM (inactive)
CCRF-CEM
  GI50: > 100 µM (inactive)
HCT-116
  GI50: > 100 µM (inactive)
PC-3
  GI50: > 100 µM (inactive)
CAKI-1
  GI50: > 100 µM (inactive)

## COc1ccc(/C=C2\C[C@H]3[C@@H]4CC=C5C[C@@H](OC(C)=O)CC[C@]5(C)[C@H]4CC[C@]3(C)\C2=N\O)cc1OC
UACC-62
  GI50: 30.5 µM (inactive)
DU-145
  GI50: 39.4 µM (inactive)
M14
  GI50: 14.7 µM (inactive)
Malme-3M
  GI50: 53 µM (inactive)
COLO 205
  GI50: 8.77 µM (inactive)
Hs-578T
  GI50: > 100 µM (inactive)
RPMI-8226
  GI50: 4.86 µM (inactive)
HL-60
  GI50: 5.57 µM (inactive)
OVCAR-5
  GI50: 33.9 µM (inactive)
UACC-257
  GI50: 14.9 µM (inactive)
LOX IMVI
  GI50: 13.3 µM (inactive)
SK-MEL-28
  GI50: > 100 µM (inactive)
IGROV-1
  GI50: 53.3 µM (inactive)
UO-31
  GI50: 4.2 µM (inactive)
OVCAR-8
  GI50: 5.71 µM (inactive)
BT-549
  GI50: > 100 µM (inactive)
NCI-H460
  GI50: 7.03 µM (inactive)
SF-295
  GI50: 6.65 µM (inactive)
OVCAR-3
  GI50: 24.3 µM (inactive)
HCC 2998
  GI50: 16.2 µM (inactive)
NCI-H226
  GI50: 9.2 µM (inactive)
SNB-19
  GI50: 25 µM (inactive)
OVCAR-4
  GI50: 11.4 µM (inactive)
SK-MEL-2
  GI50: 20.8 µM (inactive)
HOP-62
  GI50: 31.7 µM (inactive)
KM12
  GI50: 9.27 µM (inactive)
786-0
  GI50: 8.87 µM (inactive)
MOLT-4
  GI50: 3.6 µM (inactive)
MCF7
  GI50: 6.3 µM (inactive)
HOP-92
  GI50: 3.89 µM (inactive)
SK-MEL-5
  GI50: 2.71 µM (inactive)
A549
  GI50: 5.12 µM (inactive)
SF-539
  GI50: 31 µM (inactive)
NCI/ADR-RES
  GI50: 53.5 µM (inactive)
MDA-MB-435
  GI50: 20.7 µM (inactive)
SF-268
  GI50: > 100 µM (inactive)
HT-29
  GI50: 5.74 µM (inactive)
MDA-N
  GI50: 10.4 µM (inactive)
NCI-H23
  GI50: 29.2 µM (inactive)
SR
  GI50: 9.33 µM (inactive)
SN12C
  GI50: 15.4 µM (inactive)
SW-620
  GI50: 84.9 µM (inactive)
K562
  GI50: 5.19 µM (inactive)
SNB-75
  GI50: > 100 µM (inactive)
A498
  GI50: 19.3 µM (inactive)
RXF 393
  GI50: 7.4 µM (inactive)
T47D
  GI50: 5.38 µM (inactive)
EKVX
  GI50: 3.01 µM (inactive)
HCT-15
  GI50: 9.44 µM
NCI-H522
  GI50: 21.6 µM (inactive)
ACHN
  GI50: 8 µM (inactive)
SK-OV-3
  GI50: 68.1 µM (inactive)
CCRF-CEM
  GI50: 7.5 µM (inactive)
HCT-116
  GI50: 8.05 µM (inactive)
PC-3
  GI50: 18.8 µM (inactive)
CAKI-1
  GI50: 11.2 µM (inactive)
